The target of one experiment is Tet(X4) (Escherichia coli, UniProt A0A3T0V9Y5). Description: Absorbance activity assay (tigecycline turnover, A400). It counts as biochemical. From the text: We then tested the binding of reported type 1 TDase inhibitors to Tet(X4) (Fig. 3f, ESI Fig. S17 ^†).[33,38,39] […] These compounds gave similar apparent IC50^app values, in accord with trends in IC50 measurements performed by Markley et al.[33] […] We also developed a complementary endpoint activity assay where the turnover of tigecycline by Tet(X4) in a 96-well plate was quenched by addition of 1%v/v formic acid and analysed chromatographically. The peak integrals of tigecycline and its hydroxylated degradation product at 254 nm following UPLC analysis were measured to determine turnover (Fig. 5a). As this method separates components by chromatography, it enables IC50 measurements independent of potential interference from UV-active inhibitors (Fig. 5b). […] The apparent synergy of AZT with tetracyclines against whole cells expressing Tet(X4)[40] is therefore interesting and may derive from the proposed ability of AZT to interfere with DNA synthesis in bacteria,[40,53] or other unidentified mechanisms. […] Note, however, that plumbagin and 2-MNQ are naphthoquinones, which are well-characterised redox-active pan-assay interference (PAINS) moieties.[54]
233 Absorbance Activity Assays
234 A solution containing 100 mM TAPS (pH 8.5), 2 µM FAD, 10 mM MgCl2 and 100 nM Tet(X4) was
235 dispensed into a 384 well µClear plate (Greiner Bio-One), 25 µL per well, using a microplate reagent
236 dispenser. A 3-fold, 10-point dilution series of the substrates and inhibitors was made in DMSO with
237 the highest concentration of 50 mM, unless otherwise stated, and transferred to the enzyme solution in
238 technical quadruplicate using a CyBi-Well (CyBio) liquid-handling robot (1 µL per well). On each plate,
239 a column of no enzyme negative controls and no inhibitor (DMSO only) positive controls were
240 included. The plate was briefly centrifuged (1000 rpm), then incubated (ambient temperature,15 min).
241 A solution containing 100 mM TAPS (pH 8.5), 50 µM tigecycline and 500 µM NADPH was then
242 dispensed, with 25 µL per well. The plate was briefly centrifuged (1000 rpm), then transferred to a
243 CLARIOstar Plus Microplate reader. The absorbance was monitored at wavelength […] over the
244 course of 2 hours (23 flashes / cycle, 180 s cycle time, 41 data points, 25 ° C). The initial rate was
245 calculated by measuring the rate of change of A400 during the initial linear regime. Initial rates were
246 normalised between positive and negative controls. The normalised % response was plotted as a
247 function of log10([Inhibitor]) in molar units, and the IC50 was determined as above. […]

Experiment [1] concerns tigecycline resistant Salmonella, E. coli, Acinetobacter and Proteus isolates containing tet(X) genes. Description: Checkerboard assays across the panel of isolates. The settings on record: against all of the strains tested. Format: cell-based. On the procedure: MIC tests and checkerboard assays were performed in U-bottom, 96-well microtiter plates using a modified broth microdilution protocol following CLSI guidelines. Cation-adjusted Mueller-Hinton Broth (CAMHB) was prepared fresh on the day of testing.[74] In brief, assays were set up in a total volume of 100 μL per well and titrations comprised seven 2-fold dilutions of inhibitors and ten 2-fold dilutions of tigecycline in CAMHB. Bacterial colonies were selected from an overnight culture on MHA plates (supplemented with 0.2%w/vL-arabinose for E. coli TOP10 containing pBAD-TOPO-Tet(X4)) and were suspended in 0.9% saline solution to achieve a 0.5 McFarland standard. A 100 μL aliquot of this suspension was then diluted into 9.9 mL of CAMHB to yield approximately 1.5 × 10^6 cfu mL^−1. 50 μL of the suspension was then added to each well of a microtiter plates. Plates were incubated at 37 °C for 18 h. At least 2 replicates were conducted for each combination. E. coli TOP10 + pBAD-TOPO-Tet(X4) cells were grown in the absence and presence of 0.2%w/vL-arabinose. […] As a measure of synergy, fractional inhibitory concentration index (FICI) was calculated as FICA + FICB, where FICA and FICB are the MICcombination/MICalone for each agent, respectively.[76] […] In cases where the MIC exceeded or was below the measured range, the borderline value was taken to calculate the FIC index.

Regarding `Cc1c2c(c(O)c3c(O)cccc13)C(=O)[C@]1(O)C(=O)C(C(N)=O)=C(O)[C@@H](N(C)C)[C@@H]1C2` [Anhydrotetracycline], the IC50 at Tet(X4) came to 7.6 ± 2 µM. In the case of `[H]/N=C(/NCCCCC)N/N=C/c1c[nH]c2ccc(OC)cc12` [Tegaserod], the “reduction of the tigecycline MIC in combination” value in experiment [1] is 2–8 fold.

The record behind these values is PMC12056667 (Chemical Science, 2025).
